# According to PubChem BioAssay (NCI):
#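 Interpolation was linear, between the two tested concentrations surrounding the appropriate level; five concentrations were tested over 48 hours in 96-well plates. GI50: concentration for 50% inhibition of growth. At the TGI there is no net growth.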
# Experiments:
# Test in all cases: DTP human tumour cell line panel, 48 h
# [1] = tested on: 786-0 renal
# [2] = tested on: A498 renal
# [3] = tested on: A549 NSCLC
# [4] = tested on: ACHN renal
# [5] = tested on: BT-549 breast
# [6] = tested on: CAKI-1 renal
# [7] = tested on: CCRF-CEM leukemia
# [8] = tested on: COLO 205 colon
# [9] = tested on: DU-145 prostate
# [10] = tested on: EKVX NSCLC
# [11] = tested on: HCC-2998 colon
# [12] = tested on: HCT-116 colon
# [13] = tested on: HCT-15 colon
# [14] = tested on: HL-60(TB) leukemia
# [15] = tested on: HOP-62 NSCLC
# [16] = tested on: HOP-92 NSCLC
# [17] = tested on: HS 578T breast
# [18] = tested on: HT29 colon
# [19] = tested on: IGROV1 ovarian
# [20] = tested on: K-562 leukemia
# [21] = tested on: KM12 colon
# [22] = tested on: LOX IMVI melanoma
# [23] = tested on: M14 melanoma
# [24] = tested on: MCF7 breast
# [25] = tested on: MDA-MB-231 breast
# [26] = tested on: MDA-MB-435
# [27] = tested on: MOLT-4 leukemia
# [28] = tested on: NCI-H226 lung
# [29] = tested on: NCI-H23 lung
# [30] = tested on: NCI-H460 lung
# [31] = tested on: NCI-H522 lung
# [32] = tested on: NCI/ADR-RES ovarian
# [33] = tested on: OVCAR-3 ovarian
# [34] = tested on: OVCAR-4 ovarian
# [35] = tested on: OVCAR-5 ovarian
# [36] = tested on: OVCAR-8 ovarian
# [37] = tested on: PC-3 prostate
# [38] = tested on: RPMI-8226 leukemia
# [39] = tested on: RXF 393 renal
# [40] = tested on: SF-268 CNS
# [41] = tested on: SF-295 CNS
# [42] = tested on: SF-539 CNS
# [43] = tested on: SK-MEL-2 melanoma
# [44] = tested on: SK-MEL-28 melanoma
# [45] = tested on: SK-MEL-5 melanoma
# [46] = tested on: SK-OV-3 ovarian
# [47] = tested on: SN12C renal
# [48] = tested on: SNB-19 CNS
# [49] = tested on: SNB-75 CNS
# [50] = tested on: SR leukemia
# [51] = tested on: SW-620 colon
# [52] = tested on: T-47D breast
# [53] = tested on: TK-10 renal
# [54] = tested on: U251 CNS
# [55] = tested on: UACC-257 melanoma
# [56] = tested on: UACC-62 melanoma
# [57] = tested on: UO-31 renal
structure (smiles),measurement,setting,value
O=C1OCC2=C1C(c1cccc(F)c1)c1cc3c(cc1N2CCO)CCC3 (stereo not drawn),GI50,[1],71.8 nM
same,TGI,[1],> 50000 nM
same,GI50,[2],13.8 nM
same,TGI,[2],261 nM
same,GI50,[3],113 nM
same,TGI,[3],> 50000 nM
same,GI50,[4],129 nM
same,TGI,[4],> 50000 nM
same,GI50,[5],161 nM
same,TGI,[5],6950 nM
same,GI50,[6],38.1 nM
same,TGI,[6],> 33300 nM
same,GI50,[7],168 nM
same,TGI,[7],> 50000 nM
same,GI50,[8],152 nM
same,GI50,[9],162 nM
same,TGI,[9],> 24400 nM
same,GI50,[10],162 nM
same,TGI,[10],> 50000 nM
same,GI50,[11],148 nM
same,TGI,[11],11000 nM
same,GI50,[12],81.9 nM
same,TGI,[12],> 50000 nM
same,GI50,[13],46.4 nM
same,TGI,[13],> 20200 nM
same,GI50,[14],77.3 nM
same,TGI,[14],376 nM
same,GI50,[15],798 nM
same,TGI,[15],> 50000 nM
same,GI50,[16],1620 nM
same,TGI,[16],49600 nM
same,GI50,[17],50.9 nM
same,TGI,[17],> 30600 nM
same,GI50,[18],92.2 nM
same,TGI,[18],> 18900 nM
same,GI50,[19],81.7 nM
same,TGI,[19],> 50000 nM
same,GI50,[20],28 nM
same,TGI,[20],> 50000 nM
same,GI50,[21],55.9 nM
same,TGI,[21],> 50000 nM
same,GI50,[22],95.8 nM
same,TGI,[22],10100 nM
same,GI50,[23],49.1 nM
same,TGI,[23],> 20900 nM
same,GI50,[24],22.9 nM
same,TGI,[24],> 29000 nM
same,GI50,[25],218 nM
same,TGI,[25],> 22200 nM
same,GI50,[26],16.6 nM
same,TGI,[26],68.4 nM
same,GI50,[27],237 nM
same,TGI,[27],> 50000 nM
same,GI50,[28],1020 nM
same,TGI,[28],> 47600 nM
same,GI50,[29],248 nM
same,TGI,[29],> 50000 nM
same,GI50,[30],60.9 nM
same,TGI,[30],6970 nM
same,GI50,[31],16.9 nM
same,TGI,[31],704 nM
same,GI50,[32],43.5 nM
same,TGI,[32],> 50000 nM
same,GI50,[33],29.3 nM
same,TGI,[33],3920 nM
same,GI50,[34],1760 nM
same,TGI,[34],> 50000 nM
same,GI50,[35],205 nM
same,TGI,[35],> 50000 nM
same,GI50,[36],139 nM
same,TGI,[36],> 50000 nM
same,GI50,[37],65.7 nM
same,TGI,[37],> 50000 nM
same,GI50,[38],167 nM
same,TGI,[38],29700 nM
same,GI50,[39],91.4 nM
same,TGI,[39],> 50000 nM
same,GI50,[40],122 nM
same,TGI,[40],25200 nM
same,GI50,[41],23.3 nM
same,TGI,[41],10800 nM
same,GI50,[42],49.1 nM
same,TGI,[42],434 nM
same,GI50,[43],1070 nM
same,TGI,[43],39000 nM
same,GI50,[44],655 nM
same,TGI,[44],> 50000 nM
same,GI50,[45],62.6 nM
same,TGI,[45],2580 nM
same,GI50,[46],844 nM
same,TGI,[46],> 50000 nM
same,GI50,[47],233 nM
same,TGI,[47],> 50000 nM
same,GI50,[48],113 nM
same,TGI,[48],> 50000 nM
same,GI50,[49],13.6 nM
same,TGI,[49],47400 nM
same,GI50,[50],28.5 nM
same,TGI,[50],37400 nM
same,GI50,[51],57.1 nM
same,TGI,[51],> 50000 nM
same,GI50,[52],2930 nM
same,TGI,[52],> 50000 nM
same,GI50,[53],433 nM
same,TGI,[53],> 50000 nM
same,GI50,[54],90.4 nM
same,TGI,[54],> 34000 nM
same,GI50,[55],12200 nM
same,TGI,[55],> 50000 nM
same,GI50,[56],22.7 nM
same,TGI,[56],33400 nM
same,GI50,[57],107 nM
same,TGI,[57],> 42500 nM
